Target: T1, ACVR1B (ALK4) (Homo sapiens, UniProt P36896)
T1 construct: purchased Thermo Fisher Scientific (Life Technologies) SelectScreen
Test: SelectScreen Z'LYTE
Format: biochemical
Method in brief: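 Compound tested in SelectScreen activity assays, Z'LYTE for CSF1R, CDK1/cyclin B and MAP2K6 and Adapta for CAMK1. ATP for CAMK1 was listed as 10, and Km app was used for CSF1R. Results are expressed in percent.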

T1 sequence (P36896 24-505): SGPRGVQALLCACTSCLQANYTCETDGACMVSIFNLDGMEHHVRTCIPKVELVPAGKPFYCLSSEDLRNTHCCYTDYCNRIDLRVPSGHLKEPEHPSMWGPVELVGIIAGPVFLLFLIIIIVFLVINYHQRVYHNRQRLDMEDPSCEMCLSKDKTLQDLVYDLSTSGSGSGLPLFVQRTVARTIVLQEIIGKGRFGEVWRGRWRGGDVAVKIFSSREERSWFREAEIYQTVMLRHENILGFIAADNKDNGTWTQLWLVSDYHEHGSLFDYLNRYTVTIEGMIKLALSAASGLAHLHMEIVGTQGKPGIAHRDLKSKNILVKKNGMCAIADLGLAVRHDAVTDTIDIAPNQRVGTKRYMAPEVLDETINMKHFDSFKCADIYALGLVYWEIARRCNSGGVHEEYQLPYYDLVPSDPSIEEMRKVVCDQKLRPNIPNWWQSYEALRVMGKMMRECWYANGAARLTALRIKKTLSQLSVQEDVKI

Question: Which inhibition at 1 µM does the source give for `CN(C(=O)CN1CCOCC1)c1ccc2sc3c(-c4cccc5c(=O)cc(N6CC7CCC(C6)O7)oc45)cccc3c2c1` [NU5455] here?
Answer: The inhibition at 1 µM was 2%.
